The values below come from patent publication US11938135B2, “Compositions and methods for treating vascular Ehlers Danlos syndrome and associated disorders” (The Johns Hopkins University, priority 2018, dated 2024).

Entries after “also recorded” stand apart in the source; their conditions may differ.

The nature of experiment [1]: Blood pressure / hemodynamic stress in treated vEDS mice. The experiment is classed as in vivo, mouse. Conditions: for effect on blood pressure: doses as in the survival studies; for hemodynamic stress: dose not stated.
The next experiment concerns vEDS mice. As to the kind of experiment: Survival of drug-treated vEDS mice (death due to aortic dissection). The experiment is classed as in vivo, mouse. Conditions: for protection from dissection or death: vEDS mice, dose not stated (early data); for survival rate: after about 30 days (1 month) of treatment. The procedure: Novel knock-in glycine substitution (Col3a1 G209S/+ and Col3a1 G938D/+) vEDS mice were created using CRISPR/Cas9.
To introduce each mutation, 3 guide RNAs (tracrRNA+crRNA) were designed to target the DNA regions flanking the intended mutation site. A DNA oligo repair template (ssDNA oligo) was also designed that included homologous sequences upstream and downstream of the target region, as well as the intended mutation. Pronuclear injection of one-cell C57BL/6J embryos was performed by the JHU Transgenic Core using standard microinjection techniques using a mix of Cas9 protein, tracrRNA, crRNA, and ssDNA oligo diluted in RNAse free injection buffer. Injected embryos were transferred into the oviducts of pseudopregnant ICR females using established techniques. Sanger sequencing of the site was utilized to confirm introduction of the mutation, and the mice were backcrossed for at least 4 generations to eliminate off-target effects. For the G209S mouse, the mutation introduced was c.625_626 GG>TC, corresponding to p.Gly210Ser in humans. For the G938D mouse, the mutation introduced was c.2813G>A, corresponding to […] in humans. The Wild-type Human Col3a1 mRNA NCBI Accession No: NM_000090.3; the wild-type Mouse Col3a1 mRNA NCBI Accession No.: NM_009930.2.
Pharmacological ERK antagonists were tested to support the role of ERK activation in the pathogenesis of vEDS and as a method to identify therapeutic strategies for vEDS. Mice were treated with cobimetinib [GDC-0973, RO5514041] (2 mg/kg/day), an FDA-approved inhibitor of MEK, the kinase that activates ERK^8. It was hypothesized that if ERK activation was truly driving disease risk, ERK inhibition would rescue the risk of death from aortic dissection.
Next, further studies were performed to test agents that inhibit PKC activation. Mice were treated with ruboxistaurin [LY 333531] […] It was hypothesized that if ERK activation, and thereby disease risk, was driven by PLC/IP3/PKC activation, a pharmacologic PKC inhibitor would also rescue the risk of death from aortic dissection.
Further studies were performed to test other medications that inhibit this signaling cascade.

A further experiment deals with Col3a1^G209S/+ mice. The experiment is described as follows: Risk of aortic dissection in Col3a1 G209S/+ mice. Type of experiment: in vivo, mouse. Particulars: celiprolol; Col3a1 G209S/+ mutation. The text has this: Others have proposed^5-8 that vEDS phenotypes are a result of chronically “weak” tissue and therefore propose that decreasing blood pressure with beta-adrenergic receptor blockers should decrease the risk of aortic rupture in these patients. […] Since this was not common to all β antagonists, this observation could be driven by celiprolol's β2 agonism activity.

The next experiment deals with patients with vEDS. Particulars: small human study; cited from earlier work.
Experiment [2] has as its system vEDS mice, first 30 days postpartum. As to the kind of experiment: Postpartum survival of lactating vEDS mice (pregnancy/breastfeeding model). The experiment is classed as in vivo, mouse. The source says: Previously, it was shown that pregnancy-associated aortic dissection is largely driven by lactation-associated oxytocin release and oxytocin-induced ERK signaling in MFS mouse aortas^11. Thus, oxytocin-induced ERK signaling was used as a method to test whether activation of the PLC/IP3/PKC/ERK axis would worsen the risk of aortic dissection.
Oxytocin-induced ERK signaling was used as a method to test the hypothesis that activation of the PLC/IP3/PKC/ERK axis would worsen the risk of aortic dissection.

The test system of a further experiment is MFS mice. Particulars: cited from earlier work.
The next experiment relates to 129 MFS mice. The experiment is described as follows: Aortic root growth in Marfan syndrome mice. The experiment is classed as in vivo, mouse. Particulars: ruboxistaurin 10 mg/kg/d, p=2E-4. The source says: In examples, different PKC-β inhibitors are used for the treatment of Marfan Syndrome. For example, treatment of Marfan Syndrome may include administration of ruboxistaurin. […] In other examples, treatment of Marfan Syndrome includes administration of enzastaurin or sotrastaurin.

On to `CC(C)NCC(O)COc1ccc(CC(N)=O)cc1` (stereo not drawn) [atenolol], for which, in experiment [1], the “effect on blood pressure” value was “decreases in blood pressure”. In the experiment with vEDS mice (atenolol 120 mg/kg/d), the improvement in survival result is reported as “none of these manipulations lead to an improvement in survival”.
For the molecule `CC(O)(CS(=O)(=O)c1ccc(F)cc1)C(=O)Nc1ccc(C#N)c(C(F)(F)F)c1` (stereo not drawn) [bicalutamide], the “survival in male mice” value with vEDS mice (bicalutamide alone, male mice) was approximately 80%.
As for `COc1ccccc1Oc1c(NS(=O)(=O)c2ccc(C(C)(C)C)cc2)nc(-c2ncccn2)nc1OCCO` [bosentan], the survival in the experiment with vEDS mice (bosentan 100 mg/kg/d, after 40 days of treatment, 50% survival in untreated vEDS mice, p=0.0298) stood at 80%.
Turning to `CCN(CC)C(=O)Nc1ccc(OCC(O)CNC(C)(C)C)c(C(C)=O)c1` (stereo not drawn) [celiprolol], in experiment [1], the hemodynamic stress result was “achieved the predicted lowering of hemodynamic stress” and the “effect on blood pressure” value is reported as “decreases in blood pressure”. Also, the improvement in survival entry with vEDS mice (celiprolol 200 mg/kg/d) was “none of these manipulations lead to an improvement in survival”. Besides, in the experiment on vEDS mice (celiprolol 200 mg/kg/d, vEDS mouse models), the “risk of aortic dissection” value was “accelerated the risk of aortic dissection”. In the experiment with vEDS mice, the “protection from dissection or death” value is “significant acceleration of dissection and death”. The “risk of aortic dissection” value in the experiment on Col3a1^G209S/+ mice is reported as “increased risk of aortic dissection”. Also, the “adverse events in patients with vEDS” value in the experiment with patients with vEDS is “potential to delay adverse events”.
In the case of `O=C(c1ccc(F)c(F)c1Nc1ccc(I)cc1F)N1CC(O)([C@@H]2CCCCN2)C1` [cobimetinib], the “effect on blood pressure” value in experiment [1] is given as “Neither cobimetinib nor ruboxistaurin had an effect on blood pressure”. The molecule further registered a survival with vEDS mice (cobimetinib 2 mg/kg/day, after 45 days of treatment, 55% survival with no treatment) of 94%.
For `Cn1cc(C2=C(c3cn(C4CCN(Cc5ccccn5)CC4)c4ccccc34)C(=O)NC2=O)c2ccccc21` [enzastaurin, 3-(1-Methylindol-3-yl)-4-[1-[1-(pyridin-2-ylmethyl)piperidin-4-yl]indol-3-yl]pyrrole-2,5-dione], the survival with vEDS mice (enzastaurin 60 mg/kg/d, after 40 days of treatment, 50% of untreated vEDS mice, p=0.0305) came out at 80%. Further, the survival rate entry in the experiment on vEDS mice (enzastaurin about 30 mg/kg/day orally) is “about 100%”.
`NNc1nncc2ccccc12` [hydralazine] yielded a survival in the experiment on vEDS mice (hydralazine 32 mg/kg/d, at 45 days of age, the median survival for an untreated vEDS mouse) of 98%. The “survival in male mice” value in the experiment with vEDS mice (hydralazine-only (32 mg/kg/d) treated male mice) worked out at 24%. Besides, the survival postpartum in experiment [2] (hydralazine 16 mg/kg/day, first 30 days postpartum, 60% lethality untreated) came to 95%.
In the case of `CCCCc1nc(Cl)c(CO)n1Cc1ccc(-c2ccccc2-c2nn[nH]n2)cc1` [losartan], the hemodynamic stress entry in experiment [1] is reported as “achieved the predicted lowering of hemodynamic stress”. Also, the impact on survival result in the experiment with vEDS mice (losartan 60 mg/kg/d) is reported as “no impact on survival”. For the same molecule, the “protection from dissection or death” value in the experiment on vEDS mice is on record as “no evidence of protection from dissection or death”. Besides, in the experiment with MFS mice (MFS mice, literature refs 3-6), the “aortic disease in MFS mice” value is on record as “can suppress aortic disease”. Also, the “protection in mouse models of MFS or LDS” value in the experiment with MFS mice (mouse models of MFS or LDS) is reported as “afford dramatic protection”.
As to `COC(=O)c1ccc2c(c1)NC(=O)/C2=C(\Nc1ccc(N(C)C(=O)CN2CCN(C)CC2)cc1)c1ccccc1` [nintedanib], the impact on survival result with vEDS mice (nintedanib 50 mg/kg/d) is on record as “no impact on survival”.
For `CC(C)NCC(O)COc1cccc2ccccc12` (stereo not drawn) [propranolol], in experiment [1], the “effect on blood pressure” value is reported as “lowers blood pressure; also recorded: decreases in blood pressure”. In the experiment on vEDS mice (propranolol 80 mg/kg/d), the improvement in survival result is reported as “none of these manipulations lead to an improvement in survival”. Besides, the survival postpartum in experiment [2] (propranolol, after 30 days postpartum, vs. 50% survival) is 46%. Besides, the “effect on postpartum survival” value in experiment [2] (propranolol, first 30 days postpartum, mice still lactating) is recorded as “does not improve survival; also recorded: did not affect survival”.
Turning to `CN(C)C[C@@H]1CCn2cc(c3ccccc32)C2=C(C(=O)NC2=O)c2cn(c3ccccc23)CCO1` [ruboxistaurin, (9S)-9-[(dimethylamino)methyl]-6,7,10,11-tetrahydro-9H,18H-5,21:12,17-di(metheno)dibenzo[e,k]pyrrolo[3,4-h][1,4,13]oxadiazacyclohexadecine-18,20-dione], the “effect on blood pressure” value in experiment [1] is on record as “Neither cobimetinib nor ruboxistaurin had an effect on blood pressure”. Besides, the survival in the experiment on vEDS mice (ruboxistaurin 10 mg/kg/day, after 39 days of treatment, 55% survival with no treatment) came out at 100%. Further, the aortic root growth entry in the experiment with 129 MFS mice was “reduces aortic root growth; also recorded: rescued the aortic root growth”.
`CN1CCN(c2nc(C3=C(c4c[nH]c5ccccc45)C(=O)NC3=O)c3ccccc3n2)CC1` [sotrastaurin]: the survival rate result in the experiment with vEDS mice (sotrastaurin about 30 mg/kg/day orally) was “about 100%”.
Turning to `CC(=O)S[C@@H]1CC2=CC(=O)CC[C@]2(C)[C@H]2CC[C@@]3(C)[C@@H](CC[C@@]34CCC(=O)O4)[C@H]12` [spironolactone], in the experiment with vEDS mice (spironolactone alone 100 mg/kg/d), the survival is approximately 80%.
In experiment [2] (trametinib 1 mg/kg/day, first 30 days postpartum, 60% lethality untreated), `CC(=O)Nc1cccc(-n2c(=O)n(C3CC3)c(=O)c3c(Nc4ccc(I)cc4F)n(C)c(=O)c(C)c32)c1` [trametinib] had a survival postpartum of 95%.
`CCOC(=O)N[C@@H]1CC[C@@H]2[C@@H](C1)C[C@H]1C(=O)O[C@H](C)[C@H]1[C@H]2/C=C/c1ccc(-c2cccc(F)c2)cn1` [vorapraxar]: the impact on survival result in the experiment on vEDS mice (vorapraxar 1 mg/kg/d) is “no impact on survival”.
In the case of des Gly-NH2,d(CH2)5[D-Tyr2,Thr4]OVT, the survival postpartum in experiment [2] (oxytocin receptor antagonist, first 30 days postpartum, mice still lactating) came to 95%.
